Source: article PMC12340087, “Guanine is an inhibitor of c-jun terminal kinases” (Scientific Reports, 2025)

How the values were obtained:
Test in all cases: radiometric […]-ATP kinase assay, ATF2 substrate, ATP at apparent Km
Format in all cases: biochemical
JNK1 = molecular target: T1, JNK1 (Homo sapiens, UniProt P45983)
T1 construct: gene MAPK8; untagged JNK1 (amino acids 1-384)

JNK2 = molecular target: T2, JNK2 (Homo sapiens, UniProt P45984)
T2 construct: gene MAPK9; untagged JNK2 (amino acids 1-424)
T2 sequence (P45984 whole entry, the tested form may be a part): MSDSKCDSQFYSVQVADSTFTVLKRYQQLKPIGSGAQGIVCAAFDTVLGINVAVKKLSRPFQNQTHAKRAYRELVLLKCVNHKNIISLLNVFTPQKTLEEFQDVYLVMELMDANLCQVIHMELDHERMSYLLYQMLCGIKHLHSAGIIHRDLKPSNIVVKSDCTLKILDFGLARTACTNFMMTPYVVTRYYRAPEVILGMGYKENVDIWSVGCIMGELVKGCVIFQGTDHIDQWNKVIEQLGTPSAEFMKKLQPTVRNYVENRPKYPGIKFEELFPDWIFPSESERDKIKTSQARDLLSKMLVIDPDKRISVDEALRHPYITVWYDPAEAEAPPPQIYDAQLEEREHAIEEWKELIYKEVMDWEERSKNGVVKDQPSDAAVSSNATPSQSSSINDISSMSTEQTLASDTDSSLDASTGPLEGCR

JNK3 = molecular target: T3, JNK3 (Homo sapiens, UniProt P53779)
T3 construct: gene MAPK10; GST-tagged JNK3 (amino acids 1-426)
T3 sequence (P53779 1-426): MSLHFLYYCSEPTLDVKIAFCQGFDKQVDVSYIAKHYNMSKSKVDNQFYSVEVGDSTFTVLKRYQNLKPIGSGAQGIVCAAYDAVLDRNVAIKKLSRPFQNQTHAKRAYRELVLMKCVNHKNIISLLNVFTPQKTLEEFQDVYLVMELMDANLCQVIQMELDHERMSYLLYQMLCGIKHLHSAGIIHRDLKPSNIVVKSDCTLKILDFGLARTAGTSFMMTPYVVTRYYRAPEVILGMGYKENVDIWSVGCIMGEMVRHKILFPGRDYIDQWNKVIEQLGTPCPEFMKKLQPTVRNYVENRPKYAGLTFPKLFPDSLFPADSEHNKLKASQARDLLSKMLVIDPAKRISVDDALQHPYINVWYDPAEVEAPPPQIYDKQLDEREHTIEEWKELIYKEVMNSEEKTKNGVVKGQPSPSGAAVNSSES

T1 sequence (P45983 1-384 isoform P45983-2): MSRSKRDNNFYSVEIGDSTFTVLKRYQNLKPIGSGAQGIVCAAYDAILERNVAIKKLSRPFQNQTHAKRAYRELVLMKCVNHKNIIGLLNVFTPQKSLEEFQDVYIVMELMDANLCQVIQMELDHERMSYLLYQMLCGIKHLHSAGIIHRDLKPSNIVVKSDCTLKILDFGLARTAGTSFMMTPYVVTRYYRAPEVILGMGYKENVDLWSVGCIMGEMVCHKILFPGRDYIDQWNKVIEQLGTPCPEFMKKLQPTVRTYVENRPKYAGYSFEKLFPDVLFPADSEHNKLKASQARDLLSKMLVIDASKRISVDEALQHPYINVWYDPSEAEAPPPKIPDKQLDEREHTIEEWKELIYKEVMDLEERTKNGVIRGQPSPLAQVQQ

Nc1nc2nc[nH]c2c(=O)[nH]1 [G, guanine]
IC50 (JNK1): 200 µM | IC50 (JNK2): 180 µM | IC50 (JNK3): 330 µM
